Experimental data from ChEMBL document CHEMBL1201862, “PubChem BioAssay data set” (2004).
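Protocol summary: plate cells (96-well), add compound at 5 concentrations, incubate 48 h, interpolate endpoints linearly. At the GI50, growth is halved.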 Activity calls are given as the source filed them. Rule as the data show it: active = GI50 up to about 1.1 µM and inactive = higher. Where a SMILES comes first, the peptide text is derived from it. The star is where a group is joined. Fmoc = O=C(OCC1c2ccccc2-c2ccccc21)*; OtBu = CC(C)(C)O*

What was measured:
Assay in all cases: inhibition of tumour cell growth, NCI panel, 48 h
MDA-MB-231 = test system: MDA-MB-231
HCC 2998 = test system: HCC 2998
SK-MEL-5 = test system: SK-MEL-5
MCF7 = test system: MCF7
T47D = test system: T47D
NCI-H460 = test system: NCI-H460
SK-MEL-2 = test system: SK-MEL-2
SW-620 = test system: SW-620
M14 = test system: M14
NCI-H23 = test system: NCI-H23
SK-MEL-28 = test system: SK-MEL-28
SK-OV-3 = test system: SK-OV-3
RXF 393 = test system: RXF 393
CAKI-1 = test system: CAKI-1
PC-3 = test system: PC-3
U-251 = test system: U-251
A498 = test system: A498
OVCAR-8 = test system: OVCAR-8
SNB-75 = test system: SNB-75
HOP-92 = test system: HOP-92

Measured: GI50

Cc1cc(S(=O)(=O)[N-]/C(=N/S(=O)(=O)c2cc(Cl)sc2Cl)[n+]2ccc(N(C)C)cc2)c(S)cc1Cl
inactive: MDA-MB-231 77.3 µM | HCC 2998 60.7 µM | SK-MEL-5 77.8 µM | MCF7 84.7 µM | T47D > 100 µM | NCI-H460 44.3 µM | SK-MEL-2 50.4 µM | SW-620 49.9 µM | M14 30.3 µM | NCI-H23 34.9 µM | SK-MEL-28 84.9 µM | SK-OV-3 42.9 µM | RXF 393 46.3 µM | CAKI-1 60.3 µM | PC-3 53.8 µM | U-251 45.2 µM | A498 26.7 µM | OVCAR-8 40.8 µM

CSc1nn(C)cc2nc(C)nc1-2
inactive: MDA-MB-231 > 100 µM | SK-MEL-5 > 100 µM | MCF7 > 100 µM | T47D > 100 µM | NCI-H460 > 100 µM | SK-MEL-2 > 100 µM | SW-620 > 100 µM | M14 > 100 µM | NCI-H23 > 100 µM | SK-MEL-28 > 100 µM | RXF 393 > 100 µM | CAKI-1 > 100 µM | PC-3 > 100 µM | U-251 > 100 µM | SNB-75 > 100 µM | A498 > 100 µM | OVCAR-8 > 100 µM

O=C(O)c1cc(CC2Cc3cc4c(cc3C2=O)CCC4)cc2c1CCC2 (stereo not given)
inactive: MDA-MB-231 76.4 µM | HCC 2998 > 100 µM | MCF7 > 100 µM | T47D > 100 µM | NCI-H460 > 100 µM | SK-MEL-2 > 100 µM | SW-620 > 100 µM | M14 > 100 µM | NCI-H23 > 100 µM | SK-MEL-28 > 100 µM | SK-OV-3 > 100 µM | CAKI-1 > 100 µM | PC-3 46.6 µM | U-251 82.2 µM | SNB-75 35.6 µM | A498 > 100 µM | OVCAR-8 > 100 µM

S=C1NC2=C(COc3ccccc32)C(c2ccc(Cl)cc2)N1 (stereo not given)
inactive: MDA-MB-231 17.4 µM | SK-MEL-5 15 µM | HOP-92 > 10 µM | MCF7 19.1 µM | T47D 18.2 µM | SK-MEL-2 15.3 µM | SW-620 28.6 µM | M14 18.7 µM | NCI-H23 21.7 µM | SK-MEL-28 21.9 µM | SK-OV-3 19.6 µM | RXF 393 15.5 µM | PC-3 13.4 µM | U-251 > 10 µM | SNB-75 20 µM | A498 18.1 µM | OVCAR-8 21.6 µM

COc1cc(C(C)=O)cc(C(=O)N(C(C)C)C(C)C)c1[Si](C)(C)C
inactive: MDA-MB-231 > 100 µM | SK-MEL-5 > 100 µM | HOP-92 99.3 µM | MCF7 > 100 µM | T47D > 100 µM | NCI-H460 > 100 µM | SK-MEL-2 > 100 µM | SW-620 > 100 µM | M14 > 100 µM | NCI-H23 52.8 µM | SK-MEL-28 > 100 µM | SK-OV-3 28.9 µM | CAKI-1 > 100 µM | PC-3 > 100 µM | U-251 > 100 µM | SNB-75 9.2 µM | A498 > 100 µM | OVCAR-8 > 100 µM

N#CC1C(=O)SC2c3ccccc3C(=O)c3ccccc3C12 (stereo not given)
inactive: MDA-MB-231 > 10 µM | HCC 2998 > 10 µM | SK-MEL-5 > 10 µM | MCF7 > 10 µM | T47D > 10 µM | NCI-H460 > 10 µM | SK-MEL-2 > 10 µM | SW-620 > 10 µM | M14 > 10 µM | NCI-H23 > 10 µM | SK-MEL-28 > 10 µM | SK-OV-3 > 10 µM | RXF 393 > 10 µM | CAKI-1 > 10 µM | PC-3 > 10 µM | U-251 > 10 µM | SNB-75 3.26 µM | A498 > 10 µM | OVCAR-8 > 10 µM

CN(CCc1ccccn1)c1ccc2c(c1)Cc1ccccc1-2
inactive: MDA-MB-231 3.09 µM | HCC 2998 29.5 µM | SK-MEL-5 12.6 µM | HOP-92 10.2 µM | MCF7 20.1 µM | T47D 25.2 µM | NCI-H460 5.75 µM | SW-620 48.4 µM | M14 26.7 µM | NCI-H23 27.7 µM | SK-MEL-28 29.2 µM | SK-OV-3 24.2 µM | RXF 393 25.1 µM | CAKI-1 61.4 µM | PC-3 2.92 µM | U-251 5.35 µM | SNB-75 17.9 µM | A498 16.8 µM | OVCAR-8 18.4 µM

Cc1ccc2c(=O)[nH]sc2c1
inactive: MDA-MB-231 17.3 µM | HCC 2998 21.2 µM | SK-MEL-5 12.9 µM | MCF7 17.1 µM | T47D 14.8 µM | NCI-H460 53.3 µM | SK-MEL-2 37.7 µM | SW-620 12.6 µM | M14 11.7 µM | NCI-H23 17.7 µM | SK-MEL-28 17.9 µM | SK-OV-3 > 100 µM | RXF 393 15.3 µM | CAKI-1 5.4 µM | PC-3 15.7 µM | U-251 14.8 µM | SNB-75 71.6 µM | A498 64.1 µM | OVCAR-8 17.3 µM

Clc1ccc2c(NCCCC/N=C/c3ccccc3)ccnc2c1
inactive: MDA-MB-231 13.6 µM | HCC 2998 14.5 µM | SK-MEL-5 13.5 µM | HOP-92 5.52 µM | MCF7 11.1 µM | T47D 12.6 µM | NCI-H460 11 µM | SK-MEL-2 11.8 µM | SW-620 5.78 µM | M14 14.4 µM | NCI-H23 11 µM | SK-MEL-28 15 µM | SK-OV-3 10.1 µM | RXF 393 4.09 µM | PC-3 10.4 µM | U-251 11 µM | SNB-75 11.1 µM | A498 3.01 µM | OVCAR-8 11.2 µM

CCCCOC(=O)C(O)Cc1ccoc1 (stereo not given)
inactive: MDA-MB-231 > 100 µM | HCC 2998 > 100 µM | SK-MEL-5 > 100 µM | MCF7 > 100 µM | T47D > 100 µM | NCI-H460 > 100 µM | SK-MEL-2 > 100 µM | SW-620 > 100 µM | M14 > 100 µM | NCI-H23 > 100 µM | SK-MEL-28 > 100 µM | SK-OV-3 > 100 µM | RXF 393 > 100 µM | PC-3 > 100 µM | U-251 > 100 µM | SNB-75 > 100 µM | A498 > 100 µM | OVCAR-8 > 100 µM

CC(C)C(NC(=O)OCC1c2ccccc2-c2ccccc21)C(=O)NC(CCC(=O)OC(C)(C)C)C(=O)OC(C)(C)C (stereo not given) (Fmoc-Val-Glu(OtBu)-OtBu; configuration not given here)
inactive: MDA-MB-231 19.3 µM | HCC 2998 > 100 µM | SK-MEL-5 7.69 µM | HOP-92 > 42 µM | MCF7 > 76.4 µM | T47D 8.57 µM | NCI-H460 21.2 µM | SW-620 > 71.4 µM | M14 > 100 µM | NCI-H23 14.9 µM | SK-MEL-28 > 100 µM | SK-OV-3 > 100 µM | RXF 393 > 20 µM | CAKI-1 > 100 µM | PC-3 3.99 µM | U-251 7.59 µM | SNB-75 > 46.9 µM | A498 58.5 µM | OVCAR-8 23.9 µM
